Patent US8044069B2, “Compounds as calcium channel blockers” (Abbott Laboratories, priority 2008, dated 2011)

The compounds below were run against human Cav2.2 (Homo sapiens, UniProt Q00975) (assay: Assessment of calcium channel activity using FLIPR (Ca2+ influx in IMR32 cells)). Details: IMR32 cells endogenously expressing human Cav2.2; 60 minute pre-incubation; 2 μM nifedipine; depolarized with 80 mM KCl, 5 mM CaCl2.
Format: cell-based
Protocol: (i) In Vitro Methods—Assessment of Calcium Channel Activity Using FLIPR:
The IMR32 cells were maintained in MEM media containing 10% (v/v) FBS, 1% (v/v) antibiotic/antimitotic, 1% (v/v) sodium pyruvate and 1% (v/v) MEM NEAA. Following dissociation in 0.05% (v/v) trypsin/EDTA, cells were seeded into black 1×96-well plates (Corning Cellbind) at a density of 1-1.2×10^5 cells/well and incubated in the maintenance media above for 48 hours at 37° C. […] After dye loading and a subsequent 60 minute pre-incubation with compounds (full log dilutions from 10 μM to 0.1 nM) in the presence of 1.3 mM CaCl2 and 2 μM nifedipine to block endogenous L-type channels, the external Ca^2+ concentration was increased to 5 mM CaCl2 and the cells concomitantly depolarized with 80 mM KCl to assay channel activity. To determine the IC50 values, the percent inhibition of the compound at each concentration was determined relative to the activity in the absence of inhibitor, and data was fitted using non-linear regression sigmoidal dose response curve analysis with GraphPad Prism®.

Chain of human Cav2.2 (Q00975 whole entry): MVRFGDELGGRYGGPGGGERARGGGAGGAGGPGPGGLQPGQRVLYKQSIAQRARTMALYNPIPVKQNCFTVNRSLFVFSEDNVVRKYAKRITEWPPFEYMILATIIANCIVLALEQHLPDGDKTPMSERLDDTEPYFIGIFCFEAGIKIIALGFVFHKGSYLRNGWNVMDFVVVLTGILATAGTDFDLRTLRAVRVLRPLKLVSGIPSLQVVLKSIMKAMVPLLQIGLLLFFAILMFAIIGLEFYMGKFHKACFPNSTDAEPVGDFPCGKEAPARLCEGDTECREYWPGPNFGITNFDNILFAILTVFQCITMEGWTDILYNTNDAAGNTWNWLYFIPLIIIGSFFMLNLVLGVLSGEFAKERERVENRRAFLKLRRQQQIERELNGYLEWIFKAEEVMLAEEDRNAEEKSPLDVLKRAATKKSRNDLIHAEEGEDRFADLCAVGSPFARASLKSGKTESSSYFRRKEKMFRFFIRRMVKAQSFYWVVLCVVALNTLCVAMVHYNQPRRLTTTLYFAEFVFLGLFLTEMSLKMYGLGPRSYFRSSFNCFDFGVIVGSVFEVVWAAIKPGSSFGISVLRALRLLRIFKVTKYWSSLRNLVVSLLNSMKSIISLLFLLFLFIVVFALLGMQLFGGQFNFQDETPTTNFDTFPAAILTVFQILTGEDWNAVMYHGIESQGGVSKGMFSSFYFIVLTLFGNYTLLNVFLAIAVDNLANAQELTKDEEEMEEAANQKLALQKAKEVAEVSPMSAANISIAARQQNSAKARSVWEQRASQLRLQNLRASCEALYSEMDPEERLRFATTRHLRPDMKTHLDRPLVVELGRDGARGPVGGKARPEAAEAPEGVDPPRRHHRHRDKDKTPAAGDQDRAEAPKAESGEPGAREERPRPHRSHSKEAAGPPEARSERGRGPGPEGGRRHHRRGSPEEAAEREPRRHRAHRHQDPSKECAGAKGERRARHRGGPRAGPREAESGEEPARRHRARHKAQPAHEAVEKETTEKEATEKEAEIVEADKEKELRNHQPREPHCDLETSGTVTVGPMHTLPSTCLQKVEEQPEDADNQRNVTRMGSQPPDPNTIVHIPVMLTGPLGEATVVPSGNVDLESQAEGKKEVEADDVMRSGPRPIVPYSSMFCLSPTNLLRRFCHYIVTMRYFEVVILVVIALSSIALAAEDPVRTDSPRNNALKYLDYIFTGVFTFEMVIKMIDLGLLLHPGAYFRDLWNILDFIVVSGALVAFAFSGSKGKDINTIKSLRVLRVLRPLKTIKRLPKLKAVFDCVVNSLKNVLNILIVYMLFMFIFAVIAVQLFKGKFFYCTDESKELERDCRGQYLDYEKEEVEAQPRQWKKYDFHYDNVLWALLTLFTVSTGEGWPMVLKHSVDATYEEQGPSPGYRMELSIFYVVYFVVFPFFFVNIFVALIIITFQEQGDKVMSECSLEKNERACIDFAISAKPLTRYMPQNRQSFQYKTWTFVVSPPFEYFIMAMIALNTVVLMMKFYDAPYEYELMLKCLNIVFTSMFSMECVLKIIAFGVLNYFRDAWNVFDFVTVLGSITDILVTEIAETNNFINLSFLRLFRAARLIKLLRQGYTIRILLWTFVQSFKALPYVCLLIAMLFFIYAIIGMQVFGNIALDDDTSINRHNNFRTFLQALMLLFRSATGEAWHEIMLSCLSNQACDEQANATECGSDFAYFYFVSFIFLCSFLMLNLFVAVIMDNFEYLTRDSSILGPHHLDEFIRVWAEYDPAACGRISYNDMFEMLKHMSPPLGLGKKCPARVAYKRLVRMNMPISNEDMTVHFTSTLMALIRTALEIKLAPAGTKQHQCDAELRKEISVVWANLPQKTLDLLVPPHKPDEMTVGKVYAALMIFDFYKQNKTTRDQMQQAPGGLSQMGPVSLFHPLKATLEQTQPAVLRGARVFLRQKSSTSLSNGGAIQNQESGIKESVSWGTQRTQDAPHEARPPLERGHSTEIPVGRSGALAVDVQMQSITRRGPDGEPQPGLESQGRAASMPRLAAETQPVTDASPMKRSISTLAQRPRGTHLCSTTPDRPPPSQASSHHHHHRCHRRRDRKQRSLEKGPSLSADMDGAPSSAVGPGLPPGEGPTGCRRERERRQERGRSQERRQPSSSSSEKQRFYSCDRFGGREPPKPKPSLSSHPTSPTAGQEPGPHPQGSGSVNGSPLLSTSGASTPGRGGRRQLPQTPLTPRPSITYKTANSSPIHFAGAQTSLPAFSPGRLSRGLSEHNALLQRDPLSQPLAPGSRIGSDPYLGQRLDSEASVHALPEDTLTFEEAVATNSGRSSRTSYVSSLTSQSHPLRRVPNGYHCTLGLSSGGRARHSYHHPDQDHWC
Chain of human Cav2.2 (P54289 25-951 partner limits assumed): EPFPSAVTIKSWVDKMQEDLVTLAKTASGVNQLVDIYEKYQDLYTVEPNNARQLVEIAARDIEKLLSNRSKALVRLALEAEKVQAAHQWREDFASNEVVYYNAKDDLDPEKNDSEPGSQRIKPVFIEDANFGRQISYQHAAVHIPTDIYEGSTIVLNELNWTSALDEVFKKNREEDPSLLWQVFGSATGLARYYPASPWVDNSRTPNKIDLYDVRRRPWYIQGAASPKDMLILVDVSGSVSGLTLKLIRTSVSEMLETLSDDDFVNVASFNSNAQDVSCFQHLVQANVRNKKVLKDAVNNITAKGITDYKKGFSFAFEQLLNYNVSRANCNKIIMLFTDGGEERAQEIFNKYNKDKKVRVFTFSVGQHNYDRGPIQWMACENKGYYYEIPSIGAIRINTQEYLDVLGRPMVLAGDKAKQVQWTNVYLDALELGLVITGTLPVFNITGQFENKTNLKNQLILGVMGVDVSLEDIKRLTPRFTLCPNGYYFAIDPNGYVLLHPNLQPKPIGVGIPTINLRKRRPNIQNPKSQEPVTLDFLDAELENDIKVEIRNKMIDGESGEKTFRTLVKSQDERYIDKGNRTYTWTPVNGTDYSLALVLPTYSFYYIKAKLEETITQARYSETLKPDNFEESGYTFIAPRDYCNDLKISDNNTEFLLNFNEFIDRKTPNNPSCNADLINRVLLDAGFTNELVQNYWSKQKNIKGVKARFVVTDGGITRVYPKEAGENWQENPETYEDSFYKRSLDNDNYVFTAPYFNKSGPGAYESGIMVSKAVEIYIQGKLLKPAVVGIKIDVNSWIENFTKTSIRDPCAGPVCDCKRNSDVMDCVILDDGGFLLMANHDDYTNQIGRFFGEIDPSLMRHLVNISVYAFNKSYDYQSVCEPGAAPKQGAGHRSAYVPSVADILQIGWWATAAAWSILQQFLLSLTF
Chain of human Cav2.2 (P54289 952-1103 partner limits assumed): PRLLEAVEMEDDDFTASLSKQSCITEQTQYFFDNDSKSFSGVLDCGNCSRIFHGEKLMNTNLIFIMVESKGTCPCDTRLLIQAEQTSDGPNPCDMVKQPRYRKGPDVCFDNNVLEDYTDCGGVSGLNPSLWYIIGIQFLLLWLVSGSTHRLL
Chain of human Cav2.2 (P54284 whole entry partner): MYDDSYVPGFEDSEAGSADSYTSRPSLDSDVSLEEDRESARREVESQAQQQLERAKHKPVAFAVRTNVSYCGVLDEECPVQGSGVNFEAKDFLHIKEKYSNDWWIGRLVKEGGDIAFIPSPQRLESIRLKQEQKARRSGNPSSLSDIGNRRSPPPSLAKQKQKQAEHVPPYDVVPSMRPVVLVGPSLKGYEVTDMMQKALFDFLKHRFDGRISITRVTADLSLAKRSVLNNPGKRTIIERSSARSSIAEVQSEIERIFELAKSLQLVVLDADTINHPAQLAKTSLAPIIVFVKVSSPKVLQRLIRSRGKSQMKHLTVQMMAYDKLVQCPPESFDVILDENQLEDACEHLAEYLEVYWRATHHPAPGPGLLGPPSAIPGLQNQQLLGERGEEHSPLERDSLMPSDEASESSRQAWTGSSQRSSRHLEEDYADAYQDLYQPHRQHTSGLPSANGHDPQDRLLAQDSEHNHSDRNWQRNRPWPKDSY

| Compound | IC50 |
| --- | --- |
| O=C(CN1CCC(c2ccccc2)(c2ccccc2)C1=O)N[C@H]1CC[C@H]2CN(Cc3cccc(C(F)(F)F)c3)C[C@H]21 (relative stereo) [Example 56, 2-(2-oxo-3,3-diphenylpyrrolidin-1-yl)-N-{(3aS*,4S*,6aR*)-2-[3-(trifluoromethyl)benzyl]octahydrocyclopenta[c]pyrrol-4-yl}acetamide] | 1.1 µM |
| O=C(CN1CCC(c2ccccc2)(c2ccccc2)C1=O)N[C@@H]1CC[C@H]2CN(Cc3cccc(C(F)(F)F)c3)C[C@H]21 (relative stereo) [Example 57, 2-(2-oxo-3,3-diphenylpyrrolidin-1-yl)-N-{(3aS*,4R*,6aR*)-2-[3-(trifluoromethyl)benzyl]octahydrocyclopenta[c]pyrrol-4-yl}acetamide] | 0.49 µM |
| O=C(CN1CCC[C@@H](c2ccccc2)C1=O)N1Cc2ccc(F)cc2C1 (single isomer, unassigned) [Example 187] | > 30 µM |
| O=C(CN1CCC[C@H](c2ccccc2)C1=O)N1Cc2ccc(F)cc2C1 (single isomer, unassigned) [Example 188] | > 30 µM |
| O=C1[C@H](c2ccc(F)cc2)CCN1Cc1nc(-c2ccc(C(F)(F)F)cc2)no1 (single isomer, unassigned) [Example 236] | 2.75 µM |
| O=C1[C@@H](c2ccc(F)cc2)CCN1Cc1nc(-c2ccc(C(F)(F)F)cc2)no1 (single isomer, unassigned) [Example 237] | 2.81 µM |
| O=C(CN1CCC(c2ccc(F)cc2)C1=O)N1Cc2ccc(C(F)(F)F)cc2C1 (single isomer, unassigned; (-)) [Example 265, (−)-3-(4-fluorophenyl)-1-{2-oxo-2-[5-(trifluoromethyl)-1,3-dihydro-2H-isoindol-2-yl]ethyl}pyrrolidin-2-one] | 11.1 µM |
| O=C(CN1CCC(c2ccccc2)(c2ccccc2)C1=O)NCc1ccc(C(F)(F)F)nc1 [Example 2, 2-(2-oxo-3,3-diphenylpyrrolidin-1-yl)-N-{[6-(trifluoromethyl)pyridin-3-yl]methyl}acetamide] | 5.28 µM |
| O=C(CN1CCC(c2ccccc2)(c2ccccc2)C1=O)NCc1nccs1 [Example 3, 2-(2-oxo-3,3-diphenylpyrrolidin-1-yl)-N-(1,3-thiazol-2-ylmethyl)acetamide] | 13.4 µM |
| Cn1ccc(CNC(=O)CN2CCC(c3ccccc3)(c3ccccc3)C2=O)n1 [Example 4, N-[(1-methyl-1H-pyrazol-3-yl)methyl]-2-(2-oxo-3,3-diphenylpyrrolidin-1-yl)acetamide] | 29.8 µM |
| O=C(CN1CCC(c2ccccc2)(c2ccccc2)C1=O)Nc1ccc(Cl)cn1 [Example 5, N-(5-chloropyridin-2-yl)-2-(2-oxo-3,3-diphenylpyrrolidin-1-yl)acetamide] | 4.51 µM |
| O=C(CN1CCC(c2ccccc2)(c2ccccc2)C1=O)NCc1ccccc1 [Example 6, N-benzyl-2-(2-oxo-3,3-diphenylpyrrolidin-1-yl)acetamide] | 5.74 µM |
| O=C(CN1CCC(c2ccccc2)(c2ccccc2)C1=O)NCc1cccc(C(F)(F)F)c1 [Example 7, 2-(2-oxo-3,3-diphenylpyrrolidin-1-yl)-N-[3-(trifluoromethyl)benzyl]acetamide] | 2.33 µM |
| O=C(CN1CCC(c2ccccc2)(c2ccccc2)C1=O)NCc1ccc(C(F)(F)F)cc1 [Example 8, 2-(2-oxo-3,3-diphenylpyrrolidin-1-yl)-N-[4-(trifluoromethyl)benzyl]acetamide] | 1.49 µM |
| O=C(CN1CCC(c2ccccc2)(c2ccccc2)C1=O)NC(c1ccccc1)C1CC1 (stereo not shown) [Example 9, N-[cyclopropyl(phenyl)methyl]-2-(2-oxo-3,3-diphenylpyrrolidin-1-yl)acetamide] | 2.1 µM |
| O=C(CN1CCC(c2ccccc2)(c2ccccc2)C1=O)NCCc1cccc(C(F)(F)F)c1 [Example 10, 2-(2-oxo-3,3-diphenylpyrrolidin-1-yl)-N-{2-[3-(trifluoromethyl)phenyl]ethyl}acetamide] | 3.87 µM |
